Where “and” joins values, the source holds several entries; their conditions need not be identical. Equal values may be shown once. Inconclusive results and toxic doses are left out. Cut-off read from the data, not from the text of the source: active = T/C of 150% or more; inactive = T/C below 125%.
System: L1210 leukemia ip in BDF1 mice, survival T/C
Test: NCI In Vivo Anticancer Drug Screen. Data for tumor model L1210 Leukemia (intraperitoneal) in B6D2F1 (BDF1) mice
Details: endpoint: mean survival time, higher = longer survival
In short: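 Read-out is survival time, reported as the treated-group measurement over the vehicle-control measurement.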

[1] = dose: 100.0 mg/kg/injection, schedule: Q04DX003 (ip), vehicle: saline with Tween-80
[2] = dose: 200.0 mg/kg/injection, schedule: Q04DX003 (ip), vehicle: saline with Tween-80
[3] = dose: 400.0 mg/kg/injection, schedule: Q04DX003 (ip), vehicle: saline with Tween-80
[4] = dose: 100.0 mg/kg/injection, schedule: Q01DX001 (ip), vehicle: Klucel (hydroxypropylcellulose) (HPC)
[5] = dose: 200.0 mg/kg/injection, schedule: Q01DX001 (ip), vehicle: Klucel (hydroxypropylcellulose) (HPC)
[6] = dose: 400.0 mg/kg/injection, schedule: Q01DX001 (ip), vehicle: Klucel (hydroxypropylcellulose) (HPC)
[7] = dose: 100.0 mg/kg/injection, schedule: Q01DX009 (ip), vehicle: Klucel (hydroxypropylcellulose) (HPC)
[8] = dose: 100.0 mg/kg/injection, schedule: Q04DX003 (ip), vehicle: Klucel (hydroxypropylcellulose) (HPC)
[9] = dose: 200.0 mg/kg/injection, schedule: Q01DX009 (ip), vehicle: Klucel (hydroxypropylcellulose) (HPC)
[10] = dose: 200.0 mg/kg/injection, schedule: Q04DX003 (ip), vehicle: Klucel (hydroxypropylcellulose) (HPC)
[11] = dose: 400.0 mg/kg/injection, schedule: Q01DX009 (ip), vehicle: Klucel (hydroxypropylcellulose) (HPC)
[12] = dose: 400.0 mg/kg/injection, schedule: Q04DX003 (ip), vehicle: Klucel (hydroxypropylcellulose) (HPC)
[13] = dose: 100.0 mg/kg/injection, schedule: Q04DX003 (ip), vehicle: saline
[14] = dose: 200.0 mg/kg/injection, schedule: Q04DX003 (ip), vehicle: saline
[15] = dose: 50.0 mg/kg/injection, schedule: Q04DX003 (ip), vehicle: saline
[16] = dose: 100.0 mg/kg/injection, schedule: Q04DX003 (ip), vehicle: gum acacia

Measured: T/C

NC(CC(=O)O)c1nn[nH]n1 (configuration not stated)
inactive: dose: 100.0 mg/kg/injection, schedule: Q01DX009 (ip), vehicle: saline with Tween-80 102 % of control | [1] 105 % of control | dose: 200.0 mg/kg/injection, schedule: Q01DX009 (ip), vehicle: saline with Tween-80 98 % of control | [2] 102 % of control | [3] 103 % of control

Cc1nc2c3nc(C)oc3c3ccccc3c2o1
inactive: [4] 97 % of control | [5] 89 % of control | [6] 86 % of control

CC(=O)N=c1cc(-c2ccc(Cl)cc2)ss1
inactive: [1] 90 % of control | [2] 95 % of control | [3] 98 % of control

COC(=S)SCN(CSC(=S)OC)c1ccccc1Cl
inactive: dose: 50.0 mg/kg/injection, schedule: Q01DX001 (ip), vehicle: Klucel (hydroxypropylcellulose) (HPC) 111 % of control | [4] 101 % of control | [7] 109 % of control | [8] 103 % of control | [5] 103 % of control | [9] 109 % of control | [10] 95 % of control | [6] 98 % of control | [11] 109 % of control | [12] 103 % of control

CCCCCOC(=O)C1OC1(CC)c1ccccc1 (configuration not stated)
inactive: dose: 100.0 mg/kg/injection, schedule: Q04DX002 (ip), vehicle: saline 97 % of control | dose: 200.0 mg/kg/injection, schedule: Q04DX002 (ip), vehicle: saline 101 % of control | dose: 400.0 mg/kg/injection, schedule: Q04DX002 (ip), vehicle: saline 120 % of control

CC(=O)c1cc2ccccc2o1
inactive: dose: 6.25 mg/kg/injection, schedule: Q04DX003 (ip), vehicle: water 103 % of control | dose: 12.5 mg/kg/injection, schedule: Q04DX003 (ip), vehicle: water 109 % of control | dose: 50.0 mg/kg/injection, schedule: Q01DX009 (ip), vehicle: Klucel (hydroxypropylcellulose) (HPC) 92 % of control | dose: 50.0 mg/kg/injection, schedule: Q04DX003 (ip), vehicle: water 108 % of control | [7] 90 % of control | dose: 100.0 mg/kg/injection, schedule: Q04DX003 (ip), vehicle: water 112 % of control | [9] 95 % of control | dose: 200.0 mg/kg/injection, schedule: Q04DX003 (ip), vehicle: water 123 % of control

CCOC(=O)c1ccc[n+]([O-])c1
inactive: [13] 94 % of control | [14] 95 % of control | dose: 400.0 mg/kg/injection, schedule: Q04DX003 (ip), vehicle: saline 94 % of control

Cc1cccc(C)c1C(Cl)CS(=O)(=O)c1ccccc1 (configuration not stated)
inactive: [8] 102 % of control | [10] 107 % of control | [12] 107 % of control

CCCCCCCCCCCCNC(=O)c1cc[n+](C)cc1
inactive: dose: 12.5 mg/kg/injection, schedule: Q04DX003 (ip), vehicle: saline 103 % of control and 88 % of control and 93 % of control | dose: 25.0 mg/kg/injection, schedule: Q04DX003 (ip), vehicle: saline 99 % of control and 87 % of control and 91 % of control | [15] 93 % of control and 91 % of control and 88 % of control

CC12NC(=O)NC(=O)N1CCS2 (configuration not stated)
inactive: dose: 50.0 mg/kg/injection, schedule: Q01DX001 (ip), vehicle: saline 100 % of control | dose: 100.0 mg/kg/injection, schedule: Q01DX001 (ip), vehicle: saline 106 % of control | dose: 200.0 mg/kg/injection, schedule: Q01DX001 (ip), vehicle: saline 102 % of control | dose: 400.0 mg/kg/injection, schedule: Q01DX001 (ip), vehicle: saline 100 % of control

CC(C)c1cccc(OC(=O)N(C)[Si](C)(C)C)c1
inactive: dose: 5.0 mg/kg/injection, schedule: Q01DX001 (ip), vehicle: saline 105 % of control | dose: 10.0 mg/kg/injection, schedule: Q01DX001 (ip), vehicle: saline 97 % of control | dose: 20.0 mg/kg/injection, schedule: Q01DX001 (ip), vehicle: saline 101 % of control | dose: 40.0 mg/kg/injection, schedule: Q01DX001 (ip), vehicle: saline 101 % of control

CSC(N)=S
inactive: dose: 50.0 mg/kg/injection, schedule: Q01DX009 (ip), vehicle: saline 96 % of control | [15] 97 % of control | dose: 100.0 mg/kg/injection, schedule: Q01DX009 (ip), vehicle: saline 94 % of control | [13] 99 % of control | [14] 99 % of control

CCOc1ccc(C2(C)OC(=O)C3CCCCC32)c2ccccc12 (configuration not stated)
inactive: [16] 100 % of control | dose: 200.0 mg/kg/injection, schedule: Q04DX003 (ip), vehicle: gum acacia 95 % of control | dose: 400.0 mg/kg/injection, schedule: Q04DX003 (ip), vehicle: gum acacia 90 % of control

OCCC/C=C/CCI
inactive: [7] 93 % of control | [8] 112 % of control | [9] 90 % of control | [10] 109 % of control | [11] 98 % of control | [12] 91 % of control

CC(Oc1ccccc1)C(=O)Nc1ccc(F)cc1 (configuration not stated)
inactive: dose: 100.0 mg/kg/injection, schedule: Q04DX002 (ip), vehicle: Klucel (hydroxypropylcellulose) (HPC) 94 % of control | dose: 200.0 mg/kg/injection, schedule: Q04DX002 (ip), vehicle: Klucel (hydroxypropylcellulose) (HPC) 97 % of control | dose: 400.0 mg/kg/injection, schedule: Q04DX002 (ip), vehicle: Klucel (hydroxypropylcellulose) (HPC) 97 % of control

O=c1[nH]c2c(c(=O)[nH]1)OCN(Cc1ccccc1)C2
inactive: dose: 50.0 mg/kg/injection, schedule: Q01DX001 (ip), vehicle: carboxymethylcellulose (CMC) 98 % of control | dose: 100.0 mg/kg/injection, schedule: Q01DX001 (ip), vehicle: carboxymethylcellulose (CMC) 105 % of control | dose: 200.0 mg/kg/injection, schedule: Q01DX001 (ip), vehicle: carboxymethylcellulose (CMC) 100 % of control | dose: 400.0 mg/kg/injection, schedule: Q01DX001 (ip), vehicle: carboxymethylcellulose (CMC) 100 % of control

Nc1cncc2ccccc12
inactive: dose: 25.0 mg/kg/injection, schedule: Q01DX009 (ip), vehicle: gum acacia 96 % of control | dose: 25.0 mg/kg/injection, schedule: Q04DX003 (ip), vehicle: gum acacia 100 % of control | dose: 50.0 mg/kg/injection, schedule: Q01DX009 (ip), vehicle: gum acacia 111 % of control | dose: 50.0 mg/kg/injection, schedule: Q04DX003 (ip), vehicle: gum acacia 98 % of control | dose: 100.0 mg/kg/injection, schedule: Q01DX009 (ip), vehicle: gum acacia 103 % of control | [16] 102 % of control and 104 % of control

CCCCCCCCCCC(=O)N(CCC)CCC
inactive: dose: 100.0 mg/kg/injection, schedule: Q01DX009 (ip), vehicle: carboxymethylcellulose (CMC) 97 % of control | dose: 100.0 mg/kg/injection, schedule: Q04DX002 (ip), vehicle: carboxymethylcellulose (CMC) 91 % of control | dose: 200.0 mg/kg/injection, schedule: Q01DX009 (ip), vehicle: carboxymethylcellulose (CMC) 93 % of control and 92 % of control | dose: 200.0 mg/kg/injection, schedule: Q04DX002 (ip), vehicle: carboxymethylcellulose (CMC) 93 % of control | dose: 400.0 mg/kg/injection, schedule: Q01DX009 (ip), vehicle: carboxymethylcellulose (CMC) 86 % of control | dose: 400.0 mg/kg/injection, schedule: Q04DX002 (ip), vehicle: carboxymethylcellulose (CMC) 88 % of control
